Literature values as cited in patent publication US20150290439A1, “METHODS FOR BILATERAL CENTRAL AUTONOMIC NEUROMODULATION” (priority 2014, published 2015).

Tests used:
[1] = not given; remark: listed apart in the source
[2] = reason for discontinuation
[3] = biological target: calcitonin gene-related peptide receptor (Homo sapiens, UniProt O60894+Q16602)
calcitonin gene-related peptide receptor, sequence (Q16602 23-461): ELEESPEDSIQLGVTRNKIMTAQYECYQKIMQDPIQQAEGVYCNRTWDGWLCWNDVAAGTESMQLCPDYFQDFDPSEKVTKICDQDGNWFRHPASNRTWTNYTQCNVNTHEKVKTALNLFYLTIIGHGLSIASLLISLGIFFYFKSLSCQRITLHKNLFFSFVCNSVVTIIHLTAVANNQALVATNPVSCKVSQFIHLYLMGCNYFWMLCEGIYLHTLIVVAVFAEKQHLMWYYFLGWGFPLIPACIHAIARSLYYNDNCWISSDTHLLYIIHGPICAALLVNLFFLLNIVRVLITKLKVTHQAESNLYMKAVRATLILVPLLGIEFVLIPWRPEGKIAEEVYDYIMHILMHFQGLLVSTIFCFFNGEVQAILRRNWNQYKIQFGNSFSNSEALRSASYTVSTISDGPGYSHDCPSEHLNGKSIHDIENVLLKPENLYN
calcitonin gene-related peptide receptor, sequence (O60894 27-148): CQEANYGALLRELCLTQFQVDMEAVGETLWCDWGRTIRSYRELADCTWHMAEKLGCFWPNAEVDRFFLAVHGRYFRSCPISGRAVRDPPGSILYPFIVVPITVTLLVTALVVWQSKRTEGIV

For `Cc1cc(C[C@@H](OC(=O)N2CCC(N3CCc4ccccc4NC3=O)CC2)C(=O)N2CCC(N3CCOCC3)CC2)cc(C)c1O` [BI44370A], the “efficacy in Phase 2 clinical study” value is listed as “efficacy demonstrated”.
For `N[C@@H]1c2cccnc2[C@H](OC(=O)N2CCC(n3c(=O)[nH]c4ncccc43)CC2)CC[C@H]1c1cccc(F)c1F` [BMS-927711], the “efficacy of the highest tested dose” value ([1]; 600 mg) is given as “no additional benefit over the doses of 75 mg and 150 mg”, the “secondary endpoints versus placebo” value ([1]; Phase 2b, acute migraine) is given as “most (and sometimes all) doses were superior to placebo” and the tolerability ([1]; acute dosing) is given as “placebo-like”. For the same compound, the “primary efficacy endpoint: proportion of pain-free subjects at 2 hours post dose” value ([1]; all doses, compared with sumatriptan, study not powered for direct comparisons) was “numerically inferior to sumatriptan”, the “efficacy as a function of dose” value ([1]; doses up to 300 mg) was “increased up to the dose of 75 mg when a plateau effect seemed to have been reached for doses between 75 mg and 300 mg” and the serious adverse events ([1]; in the trial) was “No serious adverse event was reported”. The photophobia and phonophobia ([1]; most effective doses) was “significantly improved”, the “secondary endpoints versus sumatriptan” value ([1]; most effective doses) was “numerically superior to sumatriptan” and the “efficacy of a single dose” value ([1]; single dose) was “has been demonstrated”.
In the case of `O=C(CN1C(=O)C2(CCCC2)NC[C@H]1c1cc(F)cc(F)c1)Nc1ccc2c(c1)C[C@@]1(C2)C(=O)Nc2ncccc21` [MK-3207], the liver toxicity [2] is given as “concerns of liver toxicity” and the “potency relative to telcagepant” value [3] is given as “significantly more potent than telcagepant”.
For `O=C(N[C@@H]1CC[C@@H](c2cccc(F)c2F)CN(CC(F)(F)F)C1=O)N1CCC(n2c(=O)[nH]c3ncccc32)CC1` [Telcagepant], the liver toxicity [2] is listed as “concerns of liver toxicity after frequent use”.
